Measurements from patent publication US20160122340A1, “HISTONE DEACETYLASE INHIBITORS BASED ON DERIVATIVES OF TRICYCLIC POLYHYDROACRIDINE AND ANALOGS POSSESSING FUSED SATURATED FIVE-AND-SEVEN-MEMBERED RINGS” (QUIMATRYX, S.L., priority 2013, published 2016).

Columns and labels:
[1] = biological target: T1, Human HDAC8 (Homo sapiens, UniProt Q9BY41); assay: In vitro HDAC8 inhibition, fluorogenic peptide substrate; format: biochemical; details: read-out: IC50 (μM) HDAC-8
T1 construct: Full length, MW=42 kDa, expressed in an E. coli expression system; purchased BioMol SE-145; host or cells: E. coli
T1 sequence (Q9BY41 1-377): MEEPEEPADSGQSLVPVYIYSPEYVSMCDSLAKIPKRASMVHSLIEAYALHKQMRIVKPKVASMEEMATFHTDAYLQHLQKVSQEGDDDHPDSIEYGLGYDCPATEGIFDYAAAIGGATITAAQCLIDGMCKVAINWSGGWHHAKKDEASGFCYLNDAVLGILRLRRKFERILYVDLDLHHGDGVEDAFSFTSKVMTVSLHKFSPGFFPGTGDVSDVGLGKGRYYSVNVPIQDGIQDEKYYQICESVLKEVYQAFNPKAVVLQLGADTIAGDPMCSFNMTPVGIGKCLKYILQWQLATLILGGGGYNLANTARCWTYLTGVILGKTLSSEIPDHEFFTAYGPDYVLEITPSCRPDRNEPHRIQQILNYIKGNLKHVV
Protocol: (§1) In Vitro Inhibitory Activity of Histone Deacetylase: Human Isoforms HDAC1, 2, 3, 4, 5, 6, 7, 8, 9, 10 and 11 and HeLa Cell Line Nuclear Extract (IC50 Data)
(§2) All HDAC assays were performed using acetylated AMC-labeled peptide substrate: • Substrate for isoforms HDAC1, 2, 3, 6, 10, 11 and HeLa nuclear extract assays: Acetylated fluorogenic peptide from p53 residues 379-382 (RHKKAc). • Substrate for isoforms HDAC 4, 5, 7, 9: Fluorogenic Boc-L-Lys(ε-trifluoroacetyl)-AMC. • Substrate for HDAC8 assays: Acetylated fluorogenic peptide from p53 residues 379-382 (RHKAcKAc).
(§3) 50 μM of substrate peptide (see ‘substrate peptides’ section above) and an optimal concentration of the corresponding enzyme (see ‘enzymes’ section above) in the assay buffer and 1% final concentration of DMSO were incubated in the presence of gradient concentrations of inhibitors (10-dose IC50 mode with 3-fold serial dilution) at 30° C. for 2 h. The reactions were carried out in a 96-well microplate for fluorometry in a 50 μl reaction volume. After the deacetylation reaction, Fluor-de-Lys-Developer (BioMol Cat. # KI-105) was added to each well to digest the deacetylated substrate, thus producing the fluorescent signal. The reaction was allowed to develop for 45 minutes at 30° C. with 5% CO2; then the fluorescent signal was measured with an excitation wavelength at 360 nm and an emission wavelength at 460 nm in a microplate-reading fluorometer (GeminiXS; Molecular Devices, Sunnyvale, Calif.). A curve of Deacetylated Standard (Biomol, Cat. # KI-142; made from 100 μM with 1:2 dilution and 10-doses, 6 μl) allowed the conversion of fluorescent signal into micromoles of deacetylated product. All experiments were performed in triplicate. IC50 was calculated by fitting the experimental data to a dose-response curve. DMSO was used as negative control; Trichostatin A (Biomol Cat. # GR-309) was used as positive control inhibitor.

[2] = biological target: T2, Human HDAC5 (Homo sapiens, UniProt Q9UQL6); assay: In vitro HDAC5 inhibition, fluorogenic substrate; format: biochemical; details: read-out: IC50 (μM) HDAC-5
T2 construct: Full length with Nterminal GST tag, MW=150 kDa; GST (N); purchased BioMol, Hamburg, Germany; host or cells: baculovirus / Sf9 cells
Protocol: as §1, §2, §3

[3] = biological target: T3, Human HDAC1 (Homo sapiens, UniProt Q13547); assay: In vitro HDAC1 inhibition, fluorogenic peptide substrate; format: biochemical; details: read-out: IC50 (μM) HDAC-1
T3 construct: Full length with C-terminal GST tag, MW=79.9 kDa; GST (C); purchased BioMol SE-456; host or cells: baculovirus / Sf9 cells
Protocol: as §1, §2, §3

[4] = biological target: T4, Human HDAC10 (Homo sapiens, UniProt Q969S8); assay: In vitro HDAC10 inhibition, fluorogenic peptide substrate; format: biochemical; details: read-out: IC50 (μM) HDAC-10
T4 construct: Amino acids 1-631 with Nterminal GST tag, MW=96 kDa; GST (N); purchased BioMol SE-559; host or cells: baculovirus / Sf9 cells
T4 sequence (Q969S8 1-631): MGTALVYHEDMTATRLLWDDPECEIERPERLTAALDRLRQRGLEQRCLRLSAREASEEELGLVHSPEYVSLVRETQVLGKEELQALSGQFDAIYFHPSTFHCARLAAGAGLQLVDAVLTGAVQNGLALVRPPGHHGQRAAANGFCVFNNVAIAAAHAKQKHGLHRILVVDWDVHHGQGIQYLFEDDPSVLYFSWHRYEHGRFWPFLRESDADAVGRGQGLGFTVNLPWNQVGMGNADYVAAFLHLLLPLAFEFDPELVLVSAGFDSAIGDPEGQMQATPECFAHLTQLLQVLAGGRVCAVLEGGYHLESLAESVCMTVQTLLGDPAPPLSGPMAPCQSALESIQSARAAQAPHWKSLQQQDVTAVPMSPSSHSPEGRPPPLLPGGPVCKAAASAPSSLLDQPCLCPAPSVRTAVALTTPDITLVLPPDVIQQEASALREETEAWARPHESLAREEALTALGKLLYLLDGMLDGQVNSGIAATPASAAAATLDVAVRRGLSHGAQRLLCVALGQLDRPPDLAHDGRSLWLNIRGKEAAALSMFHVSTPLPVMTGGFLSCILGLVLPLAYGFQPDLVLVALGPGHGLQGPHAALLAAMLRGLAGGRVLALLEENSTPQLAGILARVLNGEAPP
Protocol: as §1, §2, §3

[5] = biological target: T5, Human HDAC2 (Homo sapiens, UniProt Q92769); assay: In vitro HDAC2 inhibition, fluorogenic peptide substrate; format: biochemical; details: read-out: IC50 (μM) HDAC-2
T5 construct: Full length with C-terminal His tag, MW=60 kDa; His (C); purchased BioMol SE-500; host or cells: baculovirus / Sf9 cells
Protocol: as §1, §2, §3

[6] = biological target: T6, Human HDAC9 (Homo sapiens, UniProt Q9UKV0); assay: In vitro HDAC9 inhibition, fluorogenic substrate; format: biochemical; details: read-out: IC50 (μM) HDAC-9
T6 construct: Amino acids 604-1066 with C-terminal His tag, MW=50.7 kDa; His (C); purchased BioMol, Hamburg, Germany; host or cells: baculovirus expression system
Protocol: as §1, §2, §3

T5 sequence (Q92769 whole entry): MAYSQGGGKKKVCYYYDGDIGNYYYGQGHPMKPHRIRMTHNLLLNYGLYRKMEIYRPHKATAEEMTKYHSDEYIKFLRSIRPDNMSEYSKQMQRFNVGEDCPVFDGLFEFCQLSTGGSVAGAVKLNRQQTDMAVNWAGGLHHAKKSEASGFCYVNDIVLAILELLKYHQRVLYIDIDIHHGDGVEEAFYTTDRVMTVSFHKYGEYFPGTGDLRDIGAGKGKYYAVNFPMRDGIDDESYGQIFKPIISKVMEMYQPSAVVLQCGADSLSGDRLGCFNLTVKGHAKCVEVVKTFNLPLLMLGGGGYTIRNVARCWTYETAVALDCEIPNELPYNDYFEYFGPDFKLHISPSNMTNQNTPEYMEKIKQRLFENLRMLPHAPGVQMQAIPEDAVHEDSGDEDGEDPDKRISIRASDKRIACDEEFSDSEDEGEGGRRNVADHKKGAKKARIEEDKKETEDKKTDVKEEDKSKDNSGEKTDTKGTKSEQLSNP
T3 sequence (Q13547 whole entry): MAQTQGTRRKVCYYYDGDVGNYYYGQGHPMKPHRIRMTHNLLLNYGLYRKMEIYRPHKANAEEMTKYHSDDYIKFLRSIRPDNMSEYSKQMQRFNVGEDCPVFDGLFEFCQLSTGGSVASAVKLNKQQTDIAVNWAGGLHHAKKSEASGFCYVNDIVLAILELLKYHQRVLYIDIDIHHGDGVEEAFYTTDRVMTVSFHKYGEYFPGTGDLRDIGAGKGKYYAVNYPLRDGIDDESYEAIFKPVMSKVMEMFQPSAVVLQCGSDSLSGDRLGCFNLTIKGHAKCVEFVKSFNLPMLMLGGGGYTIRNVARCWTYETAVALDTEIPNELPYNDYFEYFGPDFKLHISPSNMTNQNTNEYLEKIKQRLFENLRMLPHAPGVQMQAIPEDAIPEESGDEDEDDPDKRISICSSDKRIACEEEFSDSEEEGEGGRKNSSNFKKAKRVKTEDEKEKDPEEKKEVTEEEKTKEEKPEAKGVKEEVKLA
T6 sequence (Q9UKV0 604-1066 isoform Q9UKV0-5): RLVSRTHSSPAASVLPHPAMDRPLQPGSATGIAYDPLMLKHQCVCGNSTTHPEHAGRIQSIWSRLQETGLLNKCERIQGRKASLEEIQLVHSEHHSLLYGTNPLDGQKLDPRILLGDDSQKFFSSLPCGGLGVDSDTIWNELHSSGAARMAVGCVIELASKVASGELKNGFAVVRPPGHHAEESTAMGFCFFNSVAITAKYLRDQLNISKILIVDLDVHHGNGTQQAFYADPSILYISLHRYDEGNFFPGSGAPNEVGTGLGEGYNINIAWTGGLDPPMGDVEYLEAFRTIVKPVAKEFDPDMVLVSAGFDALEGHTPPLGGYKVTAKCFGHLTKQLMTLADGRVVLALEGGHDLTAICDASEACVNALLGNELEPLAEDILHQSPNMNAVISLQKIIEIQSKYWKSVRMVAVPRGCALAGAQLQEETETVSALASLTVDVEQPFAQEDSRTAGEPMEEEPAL
T2 sequence (Q9UQL6 1-1123 isoform Q9UQL6-3): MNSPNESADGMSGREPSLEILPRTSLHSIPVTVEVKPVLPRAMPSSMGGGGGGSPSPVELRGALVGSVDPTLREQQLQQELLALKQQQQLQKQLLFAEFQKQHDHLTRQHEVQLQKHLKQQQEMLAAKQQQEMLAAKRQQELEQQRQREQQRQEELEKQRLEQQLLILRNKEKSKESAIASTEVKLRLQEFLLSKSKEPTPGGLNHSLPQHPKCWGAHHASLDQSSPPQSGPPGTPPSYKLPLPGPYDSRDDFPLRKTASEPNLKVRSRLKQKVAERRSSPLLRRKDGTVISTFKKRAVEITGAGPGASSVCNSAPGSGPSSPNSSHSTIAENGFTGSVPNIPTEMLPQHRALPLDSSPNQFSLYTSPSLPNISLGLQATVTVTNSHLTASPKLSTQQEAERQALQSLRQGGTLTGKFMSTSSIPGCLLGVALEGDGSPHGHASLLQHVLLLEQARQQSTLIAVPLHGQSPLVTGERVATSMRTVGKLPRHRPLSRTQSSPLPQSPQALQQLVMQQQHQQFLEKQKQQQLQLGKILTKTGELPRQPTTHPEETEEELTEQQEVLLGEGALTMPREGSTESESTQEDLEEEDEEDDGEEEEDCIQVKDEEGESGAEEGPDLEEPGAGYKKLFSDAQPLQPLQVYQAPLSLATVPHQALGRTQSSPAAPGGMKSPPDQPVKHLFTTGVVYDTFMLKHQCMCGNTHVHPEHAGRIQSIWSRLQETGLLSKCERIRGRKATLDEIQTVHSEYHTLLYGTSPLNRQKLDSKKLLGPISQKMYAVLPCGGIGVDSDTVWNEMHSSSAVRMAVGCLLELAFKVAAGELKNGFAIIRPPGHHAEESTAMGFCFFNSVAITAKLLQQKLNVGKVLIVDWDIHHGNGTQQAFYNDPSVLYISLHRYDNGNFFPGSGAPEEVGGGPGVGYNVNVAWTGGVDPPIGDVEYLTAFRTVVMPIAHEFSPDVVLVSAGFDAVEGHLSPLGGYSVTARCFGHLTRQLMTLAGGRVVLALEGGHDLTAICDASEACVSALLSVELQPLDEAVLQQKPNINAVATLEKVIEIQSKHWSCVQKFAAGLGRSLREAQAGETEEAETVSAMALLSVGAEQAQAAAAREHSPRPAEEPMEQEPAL

| Structure (SMILES) | IC50 [1] [µM] | IC50 [2] [µM] | IC50 [3] [µM] | IC50 [4] [µM] | melting point [°C] | IC50 [5] [µM] | IC50 [6] [µM] |
| --- | --- | --- | --- | --- | --- | --- | --- |
| O=C(CCCCCCNc1c2c(nc3ccccc13)CCCCC2)NO [Example 4, N-hydroxy-7-[(7,8,9,10-tetrahydro-6H-cyclohepta[b]quinolin-11-yl)amino]heptanamide] | 0.84 | > 5 | 0.84 | 1.13 | 155 to 156 | 1.92 | > 5 |
| O=C(CCCCCCNc1c2c(nc3ccccc13)CCC2)NO [Example 3, 7-[(2,3-dihydro-1H-cyclopenta[b]quinolin-9-yl)amino]-N-hydroxyheptanamide] | 1.28 | > 5 | 0.27 | 0.51 | 165 to 166 | 0.77 | > 5 |
| COc1cccc2c(NCCCCCCC(=O)NO)c3c(nc12)CCCC3 [Example 5, N-hydroxy-7-[(5-methoxy-1,2,3,4-tetrahydroacridin-9-yl)amino]heptanamide] | 1.52 | > 5 | 0.9 | 1.46 | 361 | 1.84 | > 5 |
| O=C(CCCCCCNc1c2c(nc3cnccc13)CCCC2)NO [Example 8, N-hydroxy-7-[(6,7,8,9-tetrahydrobenzo[b][1,7]naphthyridin-5-yl)amino]heptanamide] | 1.09 | > 5 | 1.12 | 2.02 | 56.7 | 2.41 | > 5 |
| O=C(CCCCCCNc1c2c(nc3ncccc13)CCCC2)NO [Example 7, N-hydroxy-7-[(6,7,8,9-tetrahydrobenzo[b][1,8]naphthyridin-5-yl)amino]heptanamide] | 1.44 | > 5 | 1.77 | 4.02 | 234 to 235 | 4.46 | > 5 |

Results, then the molecule that gave them:

| IC50 [1] [µM] | IC50 [2] [µM] | IC50 [3] [µM] | IC50 [4] [µM] | melting point [°C] | IC50 [5] [µM] | IC50 [6] [µM] | Structure (SMILES) |
| --- | --- | --- | --- | --- | --- | --- | --- |
| 0.21 | 4.24 | 2.95 | 6.89 | 185 to 186 | 8.48 | 3.17 | O=C(CCCCCCNC(=O)c1c2c(nc3ccccc13)CCCC2)NO [Example 11, N-[7-(hydroxyamino)-7-oxoheptyl]-1,2,3,4-tetrahydroacridine-9-carboxamide] |
|  | > 5 | > 5 | > 5 | 187 to 188 | > 5 |  | O=C(CCCCCNC(=O)c1c2c(nc3ccccc13)CCCC2)NO [Example 10, N-[6-(hydroxyamino)-6-oxohexyl]-1,2,3,4-tetrahydroacridine-9-carboxamide] |
| 0.59 | 2.14 | 2.99 | 5.76 | 162 to 164 | 6.09 | 2.47 | O=C(CCCCCNc1c2c(nc3ccccc13)CCCC2)NO [Example 1, N-hydroxy-6-[(1,2,3,4-tetrahydroacridin-9-yl)amino]hexanamide] |
| 0.53 | 0.44 | 0.36 | 0.71 | 156 to 157 | 0.75 | 1.57 | O=C(CCCCCCNc1c2c(nc3ccccc13)CCCC2)NO [Example 2, N-hydroxy-7-[(1,2,3,4-tetrahydroacridin-9-yl)amino]heptanamide] |
